Assays:
[1] = biological target: T1, AKT1 (Homo sapiens, UniProt P31749); test: kinome scan; format: binding; settings: 10 µM
T1 construct: purchased DiscoverX (KINOMEscan)

[2] = biological target: Abelson (Abl) (Homo sapiens, UniProt P00519); test: kinome scan; format: binding; set-up: T7 phage fusion (kinase-tagged phage); purchased DiscoverX (Ambit Biosciences); host or cells: BL21-derived E. coli (T7 phage); settings: read-out: Kinome scan (% of control at 10 µM)
Method: The kinome scan analysis was performed using the DiscoverX platform (www.discoverx.com). Briefly, T7 kinase-tagged phage strains are grown in parallel in 24-well or 96-well blocks in a BL21-derived E. coli host for 90 min until lysis. Lysates are centrifuged at 6,000 x g and filtered with a 0.2 µm filter to remove cell debris. Streptavidin-coated magnetic beads are treated with biotinylated kinase ligands for 30 min at room temperature to generate the affinity resin. Bound beads are blocked with excess biotin and washed with blocking buffer (SeaBlock (Pierce), 1% BSA, 0.05% Tween 20, and 1 mM DTT) to remove unbound ligand and reduce nonspecific phage binding. […] The final concentration of test compound is 10 µM. Assay plates are incubated at room temperature with shaking for 1 h. Affinity beads are treated four times with washing buffer (1X PBS, 0.05% Tween 20, and 1 mM DTT) to remove unbound phage. […] Q RT PCR is used to measure the amount of phage in each eluate (which is proportional to the amount of kinase bound). […]
Hits are identified by an ultra-sensitive quantitative PCR detecting the specific DNA tag linked to each kinase (Supplementary Figure S2). The drug is used at a concentration of 10 µM and results are expressed as the percentage of signal (kinase PCR detection) with respect to DMSO control conditions. […]

[3] = biological target: T2, CAMK4 (Homo sapiens, UniProt Q16566); test: kinome scan; format: binding; settings: 10 µM
T2 construct: purchased DiscoverX (KINOMEscan)

[4] = biological target: T3, PRKD3 (Homo sapiens, UniProt O94806); test: kinome scan; format: binding; settings: 10 µM
T3 construct: purchased DiscoverX (KINOMEscan)

[5] = biological target: T4, CLK1 (Homo sapiens, UniProt P49759); test: kinome scan; format: binding; settings: 10 µM
T4 construct: purchased DiscoverX (KINOMEscan)

[6] = biological target: T5, YANK3 (Homo sapiens, UniProt Q86UX6); test: kinome scan; format: binding; settings: 10 µM
T5 construct: purchased DiscoverX (KINOMEscan)

[7] = biological target: T6, LRRK2(G2019S) (Homo sapiens, UniProt Q5S007, G2019S); test: kinome scan; format: binding; settings: 10 µM
T6 construct: purchased DiscoverX (KINOMEscan)

[8] = biological target: T7, RSK3(Kin.Dom.1-N-terminal) (Homo sapiens, UniProt Q15349); test: kinome scan; format: binding; settings: 10 µM
T7 construct: RSK3(Kin.Dom.1-N-terminal); purchased DiscoverX (KINOMEscan)

[9] = biological target: T8, RET(V804M) (Homo sapiens, UniProt P07949, V804M); test: kinome scan; format: binding; settings: 10 µM
T8 construct: purchased DiscoverX (KINOMEscan)

[10] = biological target: T9, ERBB3 (Homo sapiens, UniProt P21860); test: kinome scan; format: binding; settings: 10 µM
T9 construct: purchased DiscoverX (KINOMEscan)

[11] = biological target: T10, DAPK3 (Homo sapiens, UniProt O43293); test: kinome scan; format: binding; settings: 10 µM
T10 construct: purchased DiscoverX (KINOMEscan)

[12] = biological target: T11, CLK4 (Homo sapiens, UniProt Q9HAZ1); test: kinome scan; format: binding; settings: 10 µM
T11 construct: purchased DiscoverX (KINOMEscan)

[13] = biological target: T12, PIK3CA(H1047L) (Homo sapiens, UniProt P42336, H1047L); test: kinome scan; format: binding; settings: 10 µM
T12 construct: purchased DiscoverX (KINOMEscan)

[14] = biological target: T13, PIP5K1C (Homo sapiens, UniProt O60331); test: kinome scan; format: binding; settings: 10 µM
T13 construct: purchased DiscoverX (KINOMEscan)

[15] = biological target: T14, TNNI3K (Homo sapiens, UniProt Q59H18); test: kinome scan; format: binding; settings: 10 µM
T14 construct: purchased DiscoverX (KINOMEscan)

[16] = biological target: T15, YSK1 (Homo sapiens, UniProt O00506); test: kinome scan; format: binding; settings: 10 µM
T15 construct: purchased DiscoverX (KINOMEscan)

[17] = biological target: Proto-oncogen Ser/Thr kinase PIM1 (PIM1) (Homo sapiens, UniProt P11309); test: Dundee activity test; format: biochemical
Description: (§1) In silico inverse screening is a ligand-driven methodology aiming at identifying a specific target for a given ligand. […] Table 2 contains for each kinase the name and acronym, the PDB identifier of the best-ranked structure, the ranking position in percent, the heavy atom RMSD of the co-crystallized ligand as a control, and the experimental confirmation from the kinome scan by Ambit Biosciences (http://www.ambitbio.com/) performed at the University of Dundee according to a previously described procedure ([Bain et al., 2003]).

[18] = biological target: Mitogen-activating protein kinase interacting Ser/Thr kinase (MNK2) (Homo sapiens, UniProt Q9HBH9); test: Dundee activity test; format: biochemical
Description: as §1

[19] = biological target: T16, MEK5 (Homo sapiens, UniProt Q13163); test: kinome scan; format: binding; settings: 10 µM
T16 construct: purchased DiscoverX (KINOMEscan)

[20] = biological target: T17, EGFR(L861Q) (Homo sapiens, UniProt P00533, L861Q); test: kinome scan; format: binding; settings: 10 µM
T17 construct: purchased DiscoverX (KINOMEscan)

[21] = biological target: T18, EGFR(L747-E749delA750P) (Homo sapiens, UniProt P00533, A750P/DEL747-749); test: kinome scan; format: binding; settings: 10 µM
T18 construct: purchased DiscoverX (KINOMEscan)

[22] = biological target: T19, ITK (Homo sapiens, UniProt Q08881); test: kinome scan; format: binding; settings: 10 µM
T19 construct: purchased DiscoverX (KINOMEscan)

[23] = system: Cytochrome P450 3A4 isoform 1; set-up: method as in PubChem Bioassay ID 884; settings: reported activity, data mining; ref PubChem Bioassay ID 884; cited from earlier work
[24] = biological target: T20, PIK3CA(E545K) (Homo sapiens, UniProt P42336, E545K); test: kinome scan; format: binding; settings: 10 µM
T20 construct: purchased DiscoverX (KINOMEscan)

[25] = biological target: T21, SRPK2 (Homo sapiens, UniProt P78362); test: kinome scan; format: binding; settings: 10 µM
T21 construct: purchased DiscoverX (KINOMEscan)

[26] = biological target: T22, EPHB4 (Homo sapiens, UniProt P54760); test: kinome scan; format: binding; settings: 10 µM
T22 construct: purchased DiscoverX (KINOMEscan)

Proto-oncogen Ser/Thr kinase PIM1 (PIM1), sequence (P11309 whole entry, species assumed): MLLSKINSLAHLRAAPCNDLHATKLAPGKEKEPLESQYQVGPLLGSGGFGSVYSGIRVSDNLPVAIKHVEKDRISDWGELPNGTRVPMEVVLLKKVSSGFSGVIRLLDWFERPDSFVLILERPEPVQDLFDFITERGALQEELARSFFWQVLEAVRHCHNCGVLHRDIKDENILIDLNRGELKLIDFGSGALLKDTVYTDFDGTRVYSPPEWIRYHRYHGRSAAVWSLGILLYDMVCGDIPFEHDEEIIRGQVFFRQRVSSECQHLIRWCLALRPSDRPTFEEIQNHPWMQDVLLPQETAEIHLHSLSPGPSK
T20 sequence (P42336 whole entry E545K): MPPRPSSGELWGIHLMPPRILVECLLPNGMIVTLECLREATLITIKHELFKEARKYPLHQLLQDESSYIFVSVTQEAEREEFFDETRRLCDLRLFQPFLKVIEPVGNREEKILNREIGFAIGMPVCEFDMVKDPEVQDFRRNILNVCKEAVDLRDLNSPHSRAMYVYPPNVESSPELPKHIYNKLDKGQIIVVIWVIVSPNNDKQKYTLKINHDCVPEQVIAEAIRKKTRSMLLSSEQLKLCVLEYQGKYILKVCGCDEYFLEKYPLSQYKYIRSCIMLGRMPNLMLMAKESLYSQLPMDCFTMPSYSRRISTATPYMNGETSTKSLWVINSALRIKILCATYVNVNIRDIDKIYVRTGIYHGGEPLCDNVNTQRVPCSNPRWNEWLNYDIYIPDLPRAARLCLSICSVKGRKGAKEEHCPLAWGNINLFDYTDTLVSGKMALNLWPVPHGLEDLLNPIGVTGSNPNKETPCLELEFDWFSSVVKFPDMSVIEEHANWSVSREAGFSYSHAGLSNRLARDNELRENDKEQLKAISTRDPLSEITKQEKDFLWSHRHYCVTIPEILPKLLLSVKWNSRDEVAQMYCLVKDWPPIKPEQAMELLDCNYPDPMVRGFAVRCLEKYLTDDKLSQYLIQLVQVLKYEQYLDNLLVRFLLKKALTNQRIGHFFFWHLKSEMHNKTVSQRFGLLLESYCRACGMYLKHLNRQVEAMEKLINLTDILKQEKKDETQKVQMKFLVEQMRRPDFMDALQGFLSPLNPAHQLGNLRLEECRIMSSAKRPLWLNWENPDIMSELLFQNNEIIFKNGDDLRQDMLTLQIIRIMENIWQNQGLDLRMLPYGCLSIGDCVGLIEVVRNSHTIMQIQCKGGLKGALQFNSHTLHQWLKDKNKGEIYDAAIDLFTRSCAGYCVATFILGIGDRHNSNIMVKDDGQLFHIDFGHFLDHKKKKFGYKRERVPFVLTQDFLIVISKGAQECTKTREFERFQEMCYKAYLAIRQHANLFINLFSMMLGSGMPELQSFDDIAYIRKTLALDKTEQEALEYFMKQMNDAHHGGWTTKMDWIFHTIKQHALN
T6 sequence (Q5S007 whole entry G2019S): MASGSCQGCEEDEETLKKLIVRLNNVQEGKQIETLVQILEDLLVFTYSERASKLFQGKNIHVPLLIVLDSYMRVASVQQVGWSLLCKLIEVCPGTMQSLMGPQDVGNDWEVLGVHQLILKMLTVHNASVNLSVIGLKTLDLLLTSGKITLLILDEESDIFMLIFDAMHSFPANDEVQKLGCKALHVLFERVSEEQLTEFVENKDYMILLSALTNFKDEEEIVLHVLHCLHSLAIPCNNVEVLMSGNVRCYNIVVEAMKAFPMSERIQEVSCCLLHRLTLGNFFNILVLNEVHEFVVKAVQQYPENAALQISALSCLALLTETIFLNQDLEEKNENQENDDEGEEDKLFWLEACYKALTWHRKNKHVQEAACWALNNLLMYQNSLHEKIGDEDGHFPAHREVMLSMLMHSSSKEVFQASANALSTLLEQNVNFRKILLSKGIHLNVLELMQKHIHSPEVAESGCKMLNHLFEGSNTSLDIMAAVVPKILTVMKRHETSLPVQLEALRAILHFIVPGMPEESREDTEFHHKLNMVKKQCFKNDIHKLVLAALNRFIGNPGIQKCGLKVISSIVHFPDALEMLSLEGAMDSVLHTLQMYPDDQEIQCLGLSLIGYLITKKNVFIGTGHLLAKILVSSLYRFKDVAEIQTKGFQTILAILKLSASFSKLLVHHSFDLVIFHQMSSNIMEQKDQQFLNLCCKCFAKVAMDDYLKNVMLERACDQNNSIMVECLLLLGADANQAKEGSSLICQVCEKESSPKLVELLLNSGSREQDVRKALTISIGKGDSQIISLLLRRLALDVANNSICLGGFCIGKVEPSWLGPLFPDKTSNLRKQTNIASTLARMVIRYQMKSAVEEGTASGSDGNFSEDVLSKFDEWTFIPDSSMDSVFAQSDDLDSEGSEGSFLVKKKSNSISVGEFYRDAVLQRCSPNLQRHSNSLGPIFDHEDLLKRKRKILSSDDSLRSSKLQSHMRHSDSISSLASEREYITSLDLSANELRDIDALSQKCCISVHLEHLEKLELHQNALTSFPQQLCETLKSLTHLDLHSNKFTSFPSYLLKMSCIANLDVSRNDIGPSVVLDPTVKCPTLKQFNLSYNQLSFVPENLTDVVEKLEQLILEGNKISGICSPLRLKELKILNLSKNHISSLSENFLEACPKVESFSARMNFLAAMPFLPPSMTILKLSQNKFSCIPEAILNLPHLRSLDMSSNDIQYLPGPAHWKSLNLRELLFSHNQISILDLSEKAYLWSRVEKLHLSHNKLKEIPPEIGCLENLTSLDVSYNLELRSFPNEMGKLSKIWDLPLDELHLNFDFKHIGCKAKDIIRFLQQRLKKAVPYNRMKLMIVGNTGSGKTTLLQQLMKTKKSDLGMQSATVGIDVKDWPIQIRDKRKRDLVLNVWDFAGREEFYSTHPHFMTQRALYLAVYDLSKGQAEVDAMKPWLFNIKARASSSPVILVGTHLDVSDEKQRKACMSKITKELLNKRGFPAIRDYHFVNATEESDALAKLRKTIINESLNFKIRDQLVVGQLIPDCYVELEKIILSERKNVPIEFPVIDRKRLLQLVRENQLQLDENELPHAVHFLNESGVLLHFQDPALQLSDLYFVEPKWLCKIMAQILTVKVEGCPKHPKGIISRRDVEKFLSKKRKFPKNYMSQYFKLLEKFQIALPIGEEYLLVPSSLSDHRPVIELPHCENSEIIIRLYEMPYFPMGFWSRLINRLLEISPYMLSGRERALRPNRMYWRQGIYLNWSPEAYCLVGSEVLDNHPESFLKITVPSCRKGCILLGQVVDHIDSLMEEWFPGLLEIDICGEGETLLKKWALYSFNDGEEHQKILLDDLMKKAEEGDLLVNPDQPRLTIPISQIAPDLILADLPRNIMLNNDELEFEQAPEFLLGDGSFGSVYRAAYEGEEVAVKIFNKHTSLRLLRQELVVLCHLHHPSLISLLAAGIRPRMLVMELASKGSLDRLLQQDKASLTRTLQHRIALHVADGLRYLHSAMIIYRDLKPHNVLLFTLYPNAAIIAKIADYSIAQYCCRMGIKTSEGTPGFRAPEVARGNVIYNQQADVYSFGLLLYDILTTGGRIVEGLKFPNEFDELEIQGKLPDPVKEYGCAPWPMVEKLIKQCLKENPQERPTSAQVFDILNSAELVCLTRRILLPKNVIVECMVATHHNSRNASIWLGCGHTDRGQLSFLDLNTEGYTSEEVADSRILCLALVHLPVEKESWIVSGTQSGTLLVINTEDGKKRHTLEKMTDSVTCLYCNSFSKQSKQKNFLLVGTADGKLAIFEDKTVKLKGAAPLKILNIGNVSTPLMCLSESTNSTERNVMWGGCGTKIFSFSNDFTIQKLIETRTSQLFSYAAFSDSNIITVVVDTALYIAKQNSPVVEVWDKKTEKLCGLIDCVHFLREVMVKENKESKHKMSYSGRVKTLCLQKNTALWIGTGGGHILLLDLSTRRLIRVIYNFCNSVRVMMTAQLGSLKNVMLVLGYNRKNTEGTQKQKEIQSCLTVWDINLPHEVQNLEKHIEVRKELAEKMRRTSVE
T3 sequence (O94806 whole entry): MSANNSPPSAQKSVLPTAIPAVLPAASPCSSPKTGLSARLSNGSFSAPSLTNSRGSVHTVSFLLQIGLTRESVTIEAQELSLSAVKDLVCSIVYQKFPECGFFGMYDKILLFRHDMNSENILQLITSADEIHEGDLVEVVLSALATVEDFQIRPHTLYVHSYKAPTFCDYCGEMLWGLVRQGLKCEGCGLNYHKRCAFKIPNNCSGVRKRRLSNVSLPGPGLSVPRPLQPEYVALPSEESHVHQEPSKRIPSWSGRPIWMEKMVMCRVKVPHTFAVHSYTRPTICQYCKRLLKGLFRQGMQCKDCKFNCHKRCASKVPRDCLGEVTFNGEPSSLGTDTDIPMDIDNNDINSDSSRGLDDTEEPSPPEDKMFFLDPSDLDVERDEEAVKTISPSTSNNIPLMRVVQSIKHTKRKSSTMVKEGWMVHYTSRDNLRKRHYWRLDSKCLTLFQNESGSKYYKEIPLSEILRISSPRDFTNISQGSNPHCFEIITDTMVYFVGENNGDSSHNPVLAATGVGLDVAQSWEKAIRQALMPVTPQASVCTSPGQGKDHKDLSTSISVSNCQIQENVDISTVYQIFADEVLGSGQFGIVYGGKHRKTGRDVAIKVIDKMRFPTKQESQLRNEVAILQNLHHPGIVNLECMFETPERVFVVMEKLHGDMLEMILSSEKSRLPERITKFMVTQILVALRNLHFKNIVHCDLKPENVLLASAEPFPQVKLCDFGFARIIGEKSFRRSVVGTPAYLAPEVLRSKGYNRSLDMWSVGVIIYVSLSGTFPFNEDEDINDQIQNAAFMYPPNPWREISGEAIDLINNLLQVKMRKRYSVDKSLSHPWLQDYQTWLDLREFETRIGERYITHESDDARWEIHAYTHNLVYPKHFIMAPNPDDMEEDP
T7 sequence (Q15349 59-318 limits assumed): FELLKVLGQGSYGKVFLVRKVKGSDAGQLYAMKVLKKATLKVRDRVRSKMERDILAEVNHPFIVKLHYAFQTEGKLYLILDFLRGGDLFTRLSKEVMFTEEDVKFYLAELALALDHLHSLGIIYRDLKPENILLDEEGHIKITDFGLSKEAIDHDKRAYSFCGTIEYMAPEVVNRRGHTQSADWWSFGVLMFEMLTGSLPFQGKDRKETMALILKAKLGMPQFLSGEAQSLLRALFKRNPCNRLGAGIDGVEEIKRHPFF
T12 sequence (P42336 whole entry H1047L): as the sequence (P42336 whole entry E545K) above, with K545E, H1047L counted along it

`Nc1ccc(N=Nc2ccccc2)c(N)n1` [phenazopyridine, 2,6-diamino-3-(phenylazo)pyridine] gave a kinase inhibition [1] of 99, a remaining binding at 10 µM [2] of 48% and a kinase inhibition [3] of 67. For the same molecule, the kinase inhibition [4] was 100, the kinase inhibition [5] was 91 and the kinase inhibition [6] was 100. The kinase inhibition [7] was 91, the kinase inhibition [8] was 100 and the “remaining binding (% of control)” value [9] was 100. For the same molecule, the kinase inhibition [10] was 91, the kinase inhibition [11] was 100 and the kinase inhibition [12] was 72. It also gave a kinase inhibition [13] of 80, a kinase inhibition [14] of 42 and a kinase inhibition [15] of 100. For the same molecule, the kinase inhibition [16] was 96, the remaining activity at 10 µM [17] was 49% and the remaining activity at 10 µM [18] was 20%. For the same molecule, the kinase inhibition [19] was 90, the kinase inhibition [20] was 95 and the kinase inhibition [21] was 86. The kinase inhibition [22] was 97, the Concentration [23] was 100 nM and the kinase inhibition [24] was 88. It also gave a kinase inhibition [25] of 100 and a kinase inhibition [26] of 95.

From paper PMC8371461 (Frontiers in Pharmacology, 2021)
